Assay results taken from US20110212484A1, “In Vitro Model of Focal Ischemia” (priority 2008, published 2011).

What was measured:
rat brain slices = assay: In vitro focal ischemia (focal OGD) in brain slices, TTC staining of infarct area; type: cell-based; conditions: 100 μM lidocaine added to OGD media, focally applied 2 hours at 100 μL/min, TTC stain
Description: In order to mimic in vivo focal ischemia in the present in vitro system, oxygen-glucose deprived (OGD) medium was focally applied to a small area (0.25-0.5 mm wide or 5-10% of cortex) within the cortex of a brain slice, or within a slice of liver or heart tissue. […] Oxygen was displaced from the media by bubbling with 95% N2 and 5% CO2. […] Nozzle of the microperfusion system was made from a 23 gauge stainless steel tube and was mounted to a micromanipulator in order to ensure accurate placement. Using the micromanipulator the nozzle was lowered until it was just touching the surface of the slice. […] In FIG. 1C, OGD solution was focally applied to the slice for 1 hour. […] In FIG. 1D, OGD solution was focally applied to the slice for 2 hours.

[1] = tested on: cortical neurons adjacent to the region of focal OGD perfusion; assay: Penumbra region of focal ischemia: intracellular recordings of membrane potential adjacent to the focal OGD perfusion; type: cell-based, rat
Description: In order to mimic in vivo focal ischemia in the present in vitro system, oxygen-glucose deprived (OGD) medium was focally applied to a small area (0.25-0.5 mm wide or 5-10% of cortex) within the cortex of a brain slice, or within a slice of liver or heart tissue. […] The OGD medium for liver and heart slices was deoxygenated, glucose-free Krebs solution. Oxygen was displaced from the media by bubbling with 95% N2 and 5% CO2. […] Nozzle of the microperfusion system was made from a 23 gauge stainless steel tube and was mounted to a micromanipulator in order to ensure accurate placement. Using the micromanipulator the nozzle was lowered until it was just touching the surface of the slice.
OGD solution was focally perfused onto rat brain slices bathed in oxygenated aCSF solution. […] A representative recording of membrane potential is depicted in FIG. 5A. Focal perfusion of OGD caused neurons outside the region of perfusion to progressively depolarize. When edaravone (100 μM) was added to the OGD media this depolarization was attenuated. This is reflected in the mean data (FIG. 5B). Percentage neuronal survival after 75 minutes is reflected in FIG. 5C. Neurons were considered “dead” if they became irreversibly depolarized to approximately 0 mV. The addition of 100 μM edaravone doubled neuronal survival from OGD. […] In FIG. 5 the * denotes p<0.05.

cortical neurons = assay: Focal glutamate perfusion of brain slices, intracellular recordings of membrane potential; conditions: aCSF containing 20 mM glutamate focally applied at 100 μL/min, neurons within the region of focal perfusion

For `CCN(CC)CC(=O)Nc1c(C)cccc1C` [Lidocaine, lidocaine], the “area of cell death caused by OGD” value (rat brain slices) was “reduced the area of cell death”.

In the case of `CC1=NN(c2ccccc2)C(=O)C1` [edaravone], the “progressive depolarization of neurons outside the region of perfusion” value ([1]; 100 μM edaravone added to OGD media, approximately 0.9 mm from focal perfusion) is reported as “attenuated” and the “neuronal survival from OGD” value ([1]; 100 μM edaravone, after 75 minutes, penumbra region) is reported as “doubled”.

In the case of `N[C@@H](CCC(=O)O)C(=O)O` [glutamate], the “membrane potential of neuron (depolarization)” value (cortical neurons) is reported as “caused a rapid depolarization of the neuron”.
